Key:
[1] = test system: Feline herpesvirus type I (FHV-1); conditions: cats maintained on oral L-lysine; cited from earlier work
[2] = water @ 20 °C; cited from earlier work
[3] = maximum amount of L-lysine capable of being dissolved in water; type: physicochemical; conditions: water @ 20 °C
Protocol: Various different concentrations of L-lysine may be used in the mixture. In one embodiment, L-lysine is initially dissolved in water at a concentration of 500 mg/ml. The L-lysine/water solution is then mixed with the palatable base substance at a 1:1 ratio (i.e., 50% solution and 50% palatable base), resulting in an L-lysine concentration of 250 mg/ml. Given that the current recommended dosage of L-lysine is 250 to 1000 mg daily, two 2 ml doses may be administered daily. Alternatively, a single 4 ml dose may be administered (if the cat is willing to consume the 4 ml dose). It should be noted, however, that the underlying principles of the invention are not confined to any particular concentration of L-lysine or any particular dosage. For example, any concentration up to the maximum amount capable of being dissolved in water may be used (e.g., 64.2 gm/100 ml water @ 20 °C, or approximately 650 mg/ml). Moreover, the L-lysine solution may then be added to the palatable base at various different ratios, based on the desired L-lysine concentration and/or the desired consistency of the final mixture (e.g., 2:1, 3:1, 1:2, . . . etc).

## NCCCC[C@H](N)C(=O)O [L-lysine]
[1]
  severity and duration of infection if signs of the virus reoccur: milder and of a shorter duration
  time between ocular viral flare-ups: longer period of time between ocular viral flare-ups
[2]
  maximum amount capable of being dissolved in water: 64.2 gm/100 ml
[3]
  maximum amount capable of being dissolved in water (approximate concentration): approximately 650 mg/ml
